Data on two molecules can be found in US8133893B2, “Trazodone and trazodone hydrochloride in purified form” (Aziende Chimiche Riunite Angelini Francesco A.C.R.A.F. …, priority 2007, dated 2012).

Values joined by “and” are separate entries in the source; they are usually repeats but may differ in a detail not shown here. Identical values can stand only once.

For series [1] the following is noted: as reported in TOXNET, National Library of Medicine; cited from earlier work.
Series [2] relates to Salmonella typhimurium strain TA1535. Nature of the series: bacterial reverse mutation test (standard plate incorporation assay). It is filed as cell-based. The protocol:
The genotoxic activity of N-(3-chlorophenyl)-N′-(3-chloropropyl)-piperazine has been assessed on histidine-dependent auxotrophic mutants of Salmonella typhimurium strains TA1535, TA1537, TA 98 and TA100, and on tryptophan-dependent mutants of Escherichia coli strain WP2 uvrA (pKM101), exposed to a solution of N-(3-chlorophenyl)-N′-(3-chloropropyl)-piperazine in dimethylsulphoxide (DMSO) and using DMSO as negative control. Two independent mutation tests were performed, both in the presence and absence of a liver microsomal fraction (S9 mix) of rat treated with phenobarbital and 5,6-benzoflavone. Tests were standard plate incorporation assays and performed according to the current regulatory guidelines. A substantial increase in reversion to prototrophy was obtained on strain TA1535 in the presence of S9 mix. In the two assays the increase was concentration related and reached, following exposure to 1500 μg per plate of N-(3-chlorophenyl)-N′-(3-chloropropyl)-piperazine, 6.4 and 5.1 times the control value.

Consider 2,2-Dichloroethylamine, for which, in series [1], the genotoxicity entry is “known genotoxic substances”.
As for `ClCCCN1CCN(c2cccc(Cl)c2)CC1` [N-(3-chlorophenyl)-N′-(3-chloropropyl)-piperazine], the “genotoxic activity (conclusion)” value in series [2] (bacterial system, following metabolic activation (S9 mix)) is recorded as “exhibited genotoxic activity”. Besides, the “increase in reversion to prototrophy” value in series [2] (strain TA1535, in the presence of S9 mix (rat liver microsomal fraction), 1500 μg per plate, two independent assays, DMSO negative control) was 6.4 times the control value and 5.1 times the control value.
